The test system of one data set is Influenza A virus. The experiment in a line: Antiviral activity against Influenza A virus A/PR/8/34 (H1N1) infected in MDCK cells assessed as inhibition of viral entry preincubated for 1 hr followed by infection in MDCK cells measured after 1 hr by focus forming assay. It counts as functional, organism-based.
Data set [1] in a line: Cytotoxicity against MDCK cells. It counts as toxicity, cell-based, Canis lupus familiaris. Conditions: dog.
The nature of data set [2]: Elimination half life in INH dosed mouse lungs. It is filed as ADME, organism-based, Lung. As to conditions: in vivo, inhaled_or_intranasal.

Molecules are shown by their SMILES. Bounds are passed on as bounds.

What is called IC50 is the concentration at which inhibition is half-maximal. As for `COc1cc(OC)c2c(=O)c(O)c(-c3ccc(OC)c(OC)c3)oc2c1`, in the data set on Influenza A virus, the IC50 is 36 µM.

In general, CC50 refers to the concentration at which the toxic effect on the cells reaches its halfway point. In the case of `NC(=O)c1nc(F)c[nH]c1=O` [FAVIPIRAVIR], in data set [1], the CC50 was greater than 2000 µg/mL.

As for `CCCCCCCC(=O)OC[C@@H](O)[C@@H](OC)[C@@H]1OC(C(=O)O)=C[C@H](NC(=N)N)[C@H]1NC(C)=O` [LANINAMIVIR OCTANOATE], in data set [2], the t1/2 is 41 h.
